Test results from patent US9499519B2, “Fused pyrimidine compounds and use thereof” (Medivation Technologies, Inc., priority 2012, dated 2016).

How the values were obtained:
Format in all cases: biochemical
IR = biological target: T1, IR (Homo sapiens, UniProt P06213); test: In vitro IR enzymatic assay (ADP-Glo kinase assay); settings: activated IR, in duplicate, read-out: inhibition of binding
T1 construct: purchased Millipore 14-803

Trk B = Trk B (Homo sapiens, UniProt Q16620); test: HotSpot kinase assay: Trk B; settings: 100 nM compound; for inhibition at 0.1 µM: read-out: % Enzyme Inhibition @ 100 nM Trk B
Chain of Trk B (Q16620 32-822): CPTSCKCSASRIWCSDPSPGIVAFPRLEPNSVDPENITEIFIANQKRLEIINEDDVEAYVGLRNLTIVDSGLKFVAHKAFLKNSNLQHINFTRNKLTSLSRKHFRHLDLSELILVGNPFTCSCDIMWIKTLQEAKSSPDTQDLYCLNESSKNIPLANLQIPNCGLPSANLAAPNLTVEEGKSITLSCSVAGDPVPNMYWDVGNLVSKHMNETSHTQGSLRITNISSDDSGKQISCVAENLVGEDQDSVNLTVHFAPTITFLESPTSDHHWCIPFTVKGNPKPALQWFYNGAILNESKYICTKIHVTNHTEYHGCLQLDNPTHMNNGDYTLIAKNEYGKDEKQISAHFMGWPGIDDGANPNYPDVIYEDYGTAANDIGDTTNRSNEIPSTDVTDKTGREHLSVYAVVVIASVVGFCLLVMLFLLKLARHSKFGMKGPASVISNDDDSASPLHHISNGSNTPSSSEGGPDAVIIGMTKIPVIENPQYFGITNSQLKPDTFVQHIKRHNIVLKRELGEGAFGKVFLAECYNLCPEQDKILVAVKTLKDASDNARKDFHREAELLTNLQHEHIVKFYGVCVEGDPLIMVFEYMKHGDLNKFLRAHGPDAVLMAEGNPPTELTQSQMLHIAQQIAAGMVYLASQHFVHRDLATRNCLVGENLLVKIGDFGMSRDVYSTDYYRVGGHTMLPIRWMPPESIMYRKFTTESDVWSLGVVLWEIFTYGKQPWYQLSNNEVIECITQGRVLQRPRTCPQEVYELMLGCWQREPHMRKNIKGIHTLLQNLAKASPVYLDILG
Description: (§1) Each compound was tested at a concentration of 0.1 μM in single duplicate mode against the 3 kinases. Compounds were prepared as 10 mM stock solutions in DMSO prior to use in the assay. […] IC50 values and curve fits were obtained using Prism (GraphPad Software).
(§2) The screening was performed using the “HotSpot” assay platform. The assay measures the conversion of a peptide substrate to ^33P-labelled phosphorylated product. Briefly, specific kinase/substrate pairs along with required cofactors were prepared in reaction buffer. Specifically, the substrate was prepared in reaction buffer (20 mM Hepes, pH 7.5; 10 mM MgCl2; 1 mM EGTA; 0.02% Brij35; 0.02 mg/mL BSA; 0.1 mM Na3VO4; 2 mM DTT; 1% DMSO), followed by delivery of any required cofactor to the resulting substrate solution. The corresponding kinase was delivered into the substrate solution and the reaction mixture was mixed gently. Compound was delivered into the reaction mixture, followed 15-20 minutes later by addition of a mixture of ATP (Sigma, St. Louis Mo.) and ^33P ATP (specific activity 0.01 μCi/μL final; Perkin Elmer, Waltham, Mass.) to a final concentration of 10 μM-30 μM to initiate the reaction. […] The percent of enzyme inhibition was calculated based on the percent of remaining kinase activity.

Trk C = Trk C (Homo sapiens, UniProt Q16288); test: HotSpot kinase assay: Trk C; settings: 100 nM compound, HotSpot; for inhibition at 0.1 µM: read-out: % Enzyme Inhibition @ 100 nM Trk C
Chain of Trk C (Q16288 32-839): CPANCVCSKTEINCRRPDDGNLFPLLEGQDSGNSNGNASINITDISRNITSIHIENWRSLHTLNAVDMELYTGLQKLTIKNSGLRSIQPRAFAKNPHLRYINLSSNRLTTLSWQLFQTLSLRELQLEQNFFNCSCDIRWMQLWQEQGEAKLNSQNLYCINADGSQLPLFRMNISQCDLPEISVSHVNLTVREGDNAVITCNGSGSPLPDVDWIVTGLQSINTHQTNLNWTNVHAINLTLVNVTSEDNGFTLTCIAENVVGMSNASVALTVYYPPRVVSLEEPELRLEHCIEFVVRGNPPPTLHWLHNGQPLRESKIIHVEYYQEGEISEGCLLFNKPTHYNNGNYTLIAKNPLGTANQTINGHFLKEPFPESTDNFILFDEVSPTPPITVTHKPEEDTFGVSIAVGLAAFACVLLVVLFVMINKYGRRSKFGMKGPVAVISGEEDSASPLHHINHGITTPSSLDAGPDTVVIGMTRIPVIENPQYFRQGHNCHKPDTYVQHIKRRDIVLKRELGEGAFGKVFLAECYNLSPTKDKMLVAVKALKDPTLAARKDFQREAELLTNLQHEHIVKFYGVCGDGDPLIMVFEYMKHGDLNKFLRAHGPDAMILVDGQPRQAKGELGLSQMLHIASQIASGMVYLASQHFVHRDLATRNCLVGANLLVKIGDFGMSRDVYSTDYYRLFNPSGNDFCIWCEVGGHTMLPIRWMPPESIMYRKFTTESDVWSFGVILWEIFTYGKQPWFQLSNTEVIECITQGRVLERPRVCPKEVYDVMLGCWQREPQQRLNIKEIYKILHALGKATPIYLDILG
Description: as §1, §2
as §1, with “Kinase assays were performed using additional compounds against a panel of 4 kinases: AXL; c-Met; c-Mer; and Trk C. Each” for “Each”, “[…]” for “μM”, “4” for “3”

IGF-1R = biological target: T2, IGF-1R (Homo sapiens, UniProt P08069); test: In vitro IGF-1R enzymatic assay (ADP-Glo kinase assay); settings: activated IGF-1R, 1 μM, in duplicate; read-out: inhibition of binding
T2 construct: purchased Millipore 14-802
T2 sequence (P08069 31-1367): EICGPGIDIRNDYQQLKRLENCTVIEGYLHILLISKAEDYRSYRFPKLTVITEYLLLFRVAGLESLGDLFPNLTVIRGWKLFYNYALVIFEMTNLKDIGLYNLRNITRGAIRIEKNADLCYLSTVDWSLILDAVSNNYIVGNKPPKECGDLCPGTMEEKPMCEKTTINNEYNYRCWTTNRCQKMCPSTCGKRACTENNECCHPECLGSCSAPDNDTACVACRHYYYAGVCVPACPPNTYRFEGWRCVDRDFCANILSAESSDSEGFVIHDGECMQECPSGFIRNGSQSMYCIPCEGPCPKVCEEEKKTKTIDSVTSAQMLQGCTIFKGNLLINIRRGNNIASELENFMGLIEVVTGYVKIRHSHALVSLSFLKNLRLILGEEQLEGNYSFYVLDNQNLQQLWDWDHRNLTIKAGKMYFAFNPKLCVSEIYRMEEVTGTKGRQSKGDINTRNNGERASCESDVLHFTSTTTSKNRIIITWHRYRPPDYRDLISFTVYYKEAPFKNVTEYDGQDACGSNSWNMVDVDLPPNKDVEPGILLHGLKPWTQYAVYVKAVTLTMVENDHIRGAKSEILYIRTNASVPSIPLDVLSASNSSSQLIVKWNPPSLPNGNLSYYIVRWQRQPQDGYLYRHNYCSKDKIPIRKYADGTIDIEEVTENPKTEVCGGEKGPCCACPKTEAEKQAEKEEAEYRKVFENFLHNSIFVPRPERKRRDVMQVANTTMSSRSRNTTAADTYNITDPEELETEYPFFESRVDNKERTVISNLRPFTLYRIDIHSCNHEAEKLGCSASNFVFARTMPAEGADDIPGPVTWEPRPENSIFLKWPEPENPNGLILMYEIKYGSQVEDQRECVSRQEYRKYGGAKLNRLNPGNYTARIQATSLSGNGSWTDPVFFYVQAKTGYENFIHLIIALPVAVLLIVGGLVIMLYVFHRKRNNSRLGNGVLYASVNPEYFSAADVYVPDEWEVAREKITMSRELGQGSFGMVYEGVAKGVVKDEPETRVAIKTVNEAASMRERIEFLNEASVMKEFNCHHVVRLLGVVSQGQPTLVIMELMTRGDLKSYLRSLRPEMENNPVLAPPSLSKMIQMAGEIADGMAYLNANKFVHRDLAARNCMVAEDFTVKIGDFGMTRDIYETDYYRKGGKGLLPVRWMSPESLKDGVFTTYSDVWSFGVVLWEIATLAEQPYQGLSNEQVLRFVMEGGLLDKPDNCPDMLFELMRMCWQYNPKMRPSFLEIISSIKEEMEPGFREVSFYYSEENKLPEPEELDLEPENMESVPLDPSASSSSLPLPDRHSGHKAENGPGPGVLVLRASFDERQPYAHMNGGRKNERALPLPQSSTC
Description: IC50 values of the compounds of the invention against IGF-1R and IR were measured in vitro using an ADP-Glo kinase assay Kit (Promega). […] Kinase reactions in both assays were conducted at 30° C. for 20 min with increasing concentrations of compounds of the invention.
Additional compounds of the invention were screened against activated IGF-1R.

Trk A = Trk A (Homo sapiens, UniProt P04629); test: HotSpot kinase assay: Trk A; settings: 100 nM compound; for inhibition at 0.1 µM: read-out: % Enzyme Inhibition @ 100 nM Trk A
Chain of Trk A (P04629 33-796): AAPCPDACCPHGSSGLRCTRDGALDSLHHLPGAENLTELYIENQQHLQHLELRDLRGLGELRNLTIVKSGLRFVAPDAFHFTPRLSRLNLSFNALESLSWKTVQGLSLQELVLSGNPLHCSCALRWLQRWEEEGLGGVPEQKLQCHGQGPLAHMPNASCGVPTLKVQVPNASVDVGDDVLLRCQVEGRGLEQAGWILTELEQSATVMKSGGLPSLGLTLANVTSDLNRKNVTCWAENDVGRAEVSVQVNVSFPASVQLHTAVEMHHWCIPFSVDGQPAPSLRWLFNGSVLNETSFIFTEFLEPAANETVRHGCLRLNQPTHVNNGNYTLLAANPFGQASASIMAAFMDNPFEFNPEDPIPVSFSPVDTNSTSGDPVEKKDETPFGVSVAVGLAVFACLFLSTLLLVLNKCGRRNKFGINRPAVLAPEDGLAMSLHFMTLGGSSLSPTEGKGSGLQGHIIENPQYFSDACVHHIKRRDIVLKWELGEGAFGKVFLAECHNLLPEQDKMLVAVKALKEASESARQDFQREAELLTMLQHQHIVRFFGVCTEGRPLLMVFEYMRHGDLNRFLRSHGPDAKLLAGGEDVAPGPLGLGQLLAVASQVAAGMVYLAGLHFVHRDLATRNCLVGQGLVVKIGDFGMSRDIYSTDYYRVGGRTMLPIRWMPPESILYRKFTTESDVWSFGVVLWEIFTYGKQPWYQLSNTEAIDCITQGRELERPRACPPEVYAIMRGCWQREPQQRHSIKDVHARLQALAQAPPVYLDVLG
Description: as §1, with “Kinase assays were performed using additional compounds against a panel of 3 kinases: Trk A; Trk B; and Trk C. Each” for “Each”, “Software). […]” for “Software).”
The screening was performed using the “HotSpot” assay platform. The assay measures the conversion of a peptide substrate to ^33P-labelled phosphorylated product. Briefly, specific kinase/substrate pairs along with required cofactors were prepared in reaction buffer. Specifically, the substrate was prepared in reaction buffer (20 mM Hepes, pH 7.5; 10 mM MgCl2; 1 mM EGTA; 0.02% Brij35; 0.02 mg/mL BSA; 0.1 mM Na3VO4; 2 mM DTT; 1% DMSO), followed by delivery of any required cofactor to the resulting substrate solution. The corresponding kinase was delivered into the substrate solution and the reaction mixture was mixed gently. Compound was delivered into the reaction mixture, followed 15-20 minutes later by addition of a mixture of ATP (Sigma, St. Louis Mo.) and ^33P ATP (specific activity 0.01 μCi/μL final; Perkin Elmer, Waltham, Mass.) to a final concentration of 10 μM-30 μM to initiate the reaction. Reactions were carried out at room temperature for 120 minutes, followed by spotting of the reactions onto P81 ion exchange filter paper (Whatman #3698-915; Whatman Inc., Piscataway, N.J.). Unbound phosphate was removed by extensive washing of filters in 0.75% phosphoric acid. […] The percent of enzyme inhibition was calculated based on the percent of remaining kinase activity.

T1 sequence (P06213 28-1382): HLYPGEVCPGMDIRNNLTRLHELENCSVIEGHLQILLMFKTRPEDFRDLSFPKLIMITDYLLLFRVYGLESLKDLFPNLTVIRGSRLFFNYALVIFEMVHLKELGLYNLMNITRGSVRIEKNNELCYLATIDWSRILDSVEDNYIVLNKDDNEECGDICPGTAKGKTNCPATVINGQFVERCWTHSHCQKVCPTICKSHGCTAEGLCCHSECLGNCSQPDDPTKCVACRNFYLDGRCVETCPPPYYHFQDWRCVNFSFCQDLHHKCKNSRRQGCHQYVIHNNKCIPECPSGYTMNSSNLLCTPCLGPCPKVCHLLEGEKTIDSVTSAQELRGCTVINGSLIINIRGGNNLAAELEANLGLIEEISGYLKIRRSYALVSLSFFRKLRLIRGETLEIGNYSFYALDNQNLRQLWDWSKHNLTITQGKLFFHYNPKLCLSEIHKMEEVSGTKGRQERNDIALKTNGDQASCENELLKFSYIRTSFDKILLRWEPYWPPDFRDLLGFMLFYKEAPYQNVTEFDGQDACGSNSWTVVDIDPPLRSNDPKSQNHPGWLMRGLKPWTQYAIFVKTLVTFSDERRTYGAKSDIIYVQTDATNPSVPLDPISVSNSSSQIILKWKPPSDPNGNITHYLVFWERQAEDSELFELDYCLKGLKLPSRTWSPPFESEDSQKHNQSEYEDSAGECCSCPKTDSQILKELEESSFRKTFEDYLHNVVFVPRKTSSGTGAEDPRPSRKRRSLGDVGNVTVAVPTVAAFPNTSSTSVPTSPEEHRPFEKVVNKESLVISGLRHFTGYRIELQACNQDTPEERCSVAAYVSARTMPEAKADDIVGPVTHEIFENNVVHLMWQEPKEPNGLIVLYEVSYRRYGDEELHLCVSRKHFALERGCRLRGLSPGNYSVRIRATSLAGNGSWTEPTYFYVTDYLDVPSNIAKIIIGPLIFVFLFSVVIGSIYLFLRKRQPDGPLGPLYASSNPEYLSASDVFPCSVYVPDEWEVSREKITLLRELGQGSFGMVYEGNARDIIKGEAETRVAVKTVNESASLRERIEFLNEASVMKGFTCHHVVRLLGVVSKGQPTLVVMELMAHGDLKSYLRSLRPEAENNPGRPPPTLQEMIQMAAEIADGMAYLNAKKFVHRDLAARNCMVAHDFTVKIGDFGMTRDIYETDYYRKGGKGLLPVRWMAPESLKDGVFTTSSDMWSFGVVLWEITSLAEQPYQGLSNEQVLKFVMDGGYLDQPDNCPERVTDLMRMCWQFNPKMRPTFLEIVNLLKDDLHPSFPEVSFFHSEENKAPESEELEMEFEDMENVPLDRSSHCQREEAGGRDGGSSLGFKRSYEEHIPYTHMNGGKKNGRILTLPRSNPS

Row | SMILES | inhibition at 1 µM (IR) [%] | % Enzyme Inhibition @ 100 nM Trk B (Trk B) | inhibition at 1 µM (IGF-1R) [%] | % Enzyme Inhibition @ 100 nM Trk A (Trk A) | inhibition at 0.1 µM (Trk B) [%] | inhibition at 0.1 µM (Trk C) [%] | inhibition at 0.1 µM (Trk A) [%] | % Enzyme Inhibition @ 100 nM Trk C (Trk C)
1 | CN(C)C(=O)C1CCCN1c1nc2c(c(Nc3cc(C4CCCCC4)[nH]n3)n1)CCC2 (stereo not shown) [Compound 114a, 1-(4-(5-cyclohexyl-1H-pyrazol-3-ylamino)-6,7-dihydro-5H-cyclopenta[d]pyrimidin-2-yl)-N,N-dimethylpyrrolidine-2-carboxamide] | ≤ 40 | ++ (Medium (40 to 59% inhibition, ++)) | < 35 | ++ (Medium (40 to 59% inhibition, ++)) | – | – | – | ++ (Medium (40 to 59% inhibition, ++))
2 | O=C(C1CCCN1c1nc2c(c(Nc3cc(C4CCCCC4)[nH]n3)n1)CCC2)N1CCCCC1 (stereo not shown) [Compound 113a, (1-(4-(5-cyclohexyl-1H-pyrazol-3-ylamino)-6,7-dihydro-5H-cyclopenta[d]pyrimidin-2-yl)pyrrolidin-2-yl)(piperidin-1-yl)methanone] | ≤ 40 | + (Low (39% or lower inhibition, +)) | < 35 | ++ (Medium (40 to 59% inhibition, ++)) | – | – | – | ++ (Medium (40 to 59% inhibition, ++))
3 | CCN(CC)C(=O)C1CCCN1c1nc2c(c(Nc3cc(C4CCCC4)[nH]n3)n1)CCC2 (stereo not shown) [Compound 116a, 1-(4-(5-cyclopenxyl-1H-pyrazol-3-ylamino)-6,7-dihydro-5H-cyclopenta[d]pyrimidin-2-yl)-N,N-diethylpyrrolidine-2-carboxamide] | ≤ 40 | – | < 35 | – | > 60 | > 60 | < 39 | –
4 | CN(C)C(=O)C1CCCN1c1nc2c(c(Nc3cc(C4CCCC4)[nH]n3)n1)CCC2 (stereo not shown) [Compound 115a, 1-(4-(5-cyclopentyl-1H-pyrazol-3-ylamino)-6,7-dihydro-5H-cyclopenta[d]pyrimidin-2-yl)-N,N-dimethylpyrrolidine-2-carboxamide] | ≤ 40 | – | < 35 | – | > 60 | > 60 | < 39 | –
5 | O=C(C1CCCN1c1nc2c(c(Nc3cc(C4CCCC4)[nH]n3)n1)CCC2)N1CCCCC1 (stereo not shown) [Compound 111a, (1-(4-(5-cyclopentyl-1H-pyrazol-3-ylamino)-6,7-dihydro-5H-cyclopenta[d]pyrimidin-2-yl)pyrrolidin-2-yl)(piperidin-1-yl)methanone] | ≤ 40 | – | < 35 | – | > 60 | > 60 | 40 to 59 | –

Further lines, with some results ahead:

Row | inhibition at 1 µM (IR) [%] | % Enzyme Inhibition @ 100 nM Trk B (Trk B) | inhibition at 1 µM (IGF-1R) [%] | % Enzyme Inhibition @ 100 nM Trk A (Trk A) | inhibition at 0.1 µM (Trk B) [%] | inhibition at 0.1 µM (Trk C) [%] | inhibition at 0.1 µM (Trk A) [%] | SMILES | % Enzyme Inhibition @ 100 nM Trk C (Trk C)
6 | ≤ 40 | ++ (Medium (40 to 59% inhibition, ++)) | < 35 | + (Low (39% or lower inhibition, +)) | – | – | – | CN(C)C(=O)C1CC(O)CN1c1nc2c(c(Nc3cc(C4CCCC4)[nH]n3)n1)CCC2 (stereo not shown) [Compound 110a, 1-(4-(5-cyclopentyl-1H-pyrazol-3-ylamino)-6,7-dihydro-5H-cyclopenta[d]pyrimidin-2-yl)-4-hydroxy-N,N-dimethylpyrrolidine-2-carboxamide] | +++ (High (60% or higher inhibition, +++))
7 | ≤ 40 | – | < 35 | – | < 39 | < 39 | < 39 | CC(C)c1cc(Nc2nc(N3CC(O)CC3C(=O)N(C)C)nc3c2CCC3)n[nH]1 (stereo not shown) [Compound 109a, 4-hydroxy-1-(4-(5-isopropyl-1H-pyrazol-3-ylamino)-6,7-dihydro-5H-cyclopenta[d]pyrimidin-2-yl)-N,N-dimethylpyrrolidine-2-carboxamide] | –
8 | ≤ 40 | ++ (Medium (40 to 59% inhibition, ++)) | < 35 | + (Low (39% or lower inhibition, +)) | – | – | – | CC(C)c1cc(Nc2nc(N3CC(O)CC3C(=O)N3CCCCC3)nc3c2CCC3)n[nH]1 (stereo not shown) [Compound 107a, (4-hydroxy-1-(4-(5-isopropyl-1H-pyrazol-3-ylamino)-6,7-dihydro-5H-cyclopenta[d]pyrimidin-2-yl)pyrrolidin-2-yl)(piperidin-1-yl)methanone] | +++ (High (60% or higher inhibition, +++))
